± gives the expanded uncertainty stated by the source.
Tests used:
[1] = refractive index (Na D-line) (dimensionless); details: 298.15 K; 101.33 kPa; Liquid; Standard Abbe refractometry
[2] = Liquid; for mass density: 298.15 K, 101.33 kPa

| SMILES | refractive index [1] | mass density [2] [kg/m3] | vapor or sublimation pressure ([2]; 363.16 K) [kPa] | vapor or sublimation pressure ([2]; 410.62 K) [kPa] | vapor or sublimation pressure ([2]; 369.75 K) [kPa] |
| --- | --- | --- | --- | --- | --- |
| CCCOCCC [dipropyl ether] | 1.3784 ± 0.0008 | 741.81 ± 0.91 | 101.3 ± 1.8 |  |  |
| CCCCCO [pentan-1-ol] | 1.408 ± 0.0008 | 810.89 ± 0.77 |  | 101.3 ± 1.8 |  |
| CCCO [propan-1-ol] | 1.3836 ± 0.0007 | 799.62 ± 0.48 |  |  | 101.3 ± 1.8 |

Reference: the NIST ThermoML archive (doi:10.1016/j.fluid.2006.07.003)
